From patent EP0745595A1, “3-(3-Aryloxyphenyl)-1-(substituted methyl)-s-triazine-2,4,6-oxo or thiotrione herbicidal agents” (American Cyanamid Company, priority 1995, dated 1996)

What was measured:
Assay type in all cases: in vivo
ECHINOCHLOA CRUS-GALLI = test: Preemergence evaluation in the presence of transplanted rice under flooded paddy conditions (Example 43), ECHCG (Barnyard Grass); parameters: key: visual rating on a 0-9 scale, compared with control; conditions: applied three days after sowing, 25 to 30 days after treatment
Method: (§1) Results of herbicide evaluation are expressed on a rating scale (0-9). The scale is based upon a visual observation of plant stand, vigor, malformation, size, chlorosis and overall plant appearance as compared with a control.
(§2) In this example, Deluvian paddy soil (Toyokawa paddy soil) is placed in plastic pots, 100cm^2 x 9 cm in depth. Water is added to the level of the soil surface in the pot and the mixture is paddled 3 cm in depth.
(§3) Pots are then variously sown with monocotyledenous weed seeds and tubers at 0-2 cm in soil depth, as well as transplanted rice plants at the 2.5 leaf stage. The rice plants are transplanted at about 3 cm soil depth. Water is then added to all of the pots to 3 cm deep and kept at a depth of 3 cm for the duration of the test. Test compounds are applied in the manner described in Example 42 three days after transplanting the rice plants and sowing the weed seeds and tubers. The pots are then placed on greenhouse benches and cared for in the conventional manner. Tests are examined at 25 to 30 days after treatment and rated according to the rating system provided in Example 40. The compounds evaluated are reported by compound number given in Example 40.

SAGITTARIA PYGMAEA = test: Preemergence evaluation in the presence of transplanted rice under flooded paddy conditions (Example 43), SAGPY (Arrowhead (Pygmaea)); parameters: key: visual rating on a 0-9 scale, compared with control; conditions: applied three days after sowing, 25 to 30 days after treatment
Method: as §1, §2, §3

CYPERUS SEROTINUS = test: Preemergence evaluation in the presence of transplanted rice under flooded paddy conditions (Example 43), CYPSE (Flatsedge, perennial); parameters: key: 0-9 visual rating scale vs. untreated control; conditions: applied three days after sowing, 25 to 30 days after treatment
Method: as §1, §2, §3

[…] = Preemergence evaluation in the presence of transplanted rice under flooded paddy conditions (Example 43), MOOVA (Monochoria); conditions: applied three days after sowing, 25 to 30 days after treatment
Method: as §1, §2, §3

CYPERUS DIFFORMIS = test: Preemergence evaluation in the presence of transplanted rice under flooded paddy conditions (Example 43), CYPDI (Flatsedge, smallflower); parameters: key: visual rating on a 0-9 scale, compared with control; conditions: applied three days after sowing, 25 to 30 days after treatment
Method: as §1, §2, §3

SCIRPUS JUNCOIDES = test: Preemergence evaluation in the presence of transplanted rice under flooded paddy conditions (Example 43), SCPJU (Bulrush, Japanese); parameters: key: visual rating on a 0-9 scale, compared with control; conditions: applied three days after sowing, 25 to 30 days after treatment
Method: as §1, §2, §3

[1] = system: ORYZA SATIVA, L. CV. KOSHIHIKARI; test: Post-transplant rice evaluation under flooded paddy conditions (Example 43), ORYSAK (Rice, Koshihikari); parameters: key: visual rating on a 0-9 scale, compared with control; conditions: applied three days after transplanting rice, 25 to 30 days after treatment
Method: as §1, §2, §3

SMILES	Herbicidal effect rating, ECHCG (ECHINOCHLOA CRUS-GALLI; 0.025 kg/ha)	Herbicidal effect rating, ECHCG (ECHINOCHLOA CRUS-GALLI; 0.050 kg/ha)	Herbicidal effect rating, ECHCG (ECHINOCHLOA CRUS-GALLI; 0.100 kg/ha)	Herbicidal effect rating, ECHCG (ECHINOCHLOA CRUS-GALLI; 0.250 kg/ha)	Herbicidal effect rating, SAGPY (SAGITTARIA PYGMAEA; 0.025 kg/ha)	Herbicidal effect rating, SAGPY (SAGITTARIA PYGMAEA; 0.050 kg/ha)	Herbicidal effect rating, SAGPY (SAGITTARIA PYGMAEA; 0.100 kg/ha)	Herbicidal effect rating, SAGPY (SAGITTARIA PYGMAEA; 0.250 kg/ha)	Herbicidal effect rating, CYPSE (CYPERUS SEROTINUS; 0.025 kg/ha)	Herbicidal effect rating, CYPSE (CYPERUS SEROTINUS; 0.050 kg/ha)	Herbicidal effect rating, CYPSE (CYPERUS SEROTINUS; 0.100 kg/ha)	Herbicidal effect rating, CYPSE (CYPERUS SEROTINUS; 0.250 kg/ha)	Herbicidal effect rating, MOOVA ([…]; 0.025 kg/ha)	Herbicidal effect rating, MOOVA ([…]; 0.050 kg/ha)	Herbicidal effect rating, MOOVA ([…]; 0.100 kg/ha)	Herbicidal effect rating, MOOVA ([…]; 0.250 kg/ha)	Herbicidal effect rating, CYPDI (CYPERUS DIFFORMIS; 0.025 kg/ha)	Herbicidal effect rating, CYPDI (CYPERUS DIFFORMIS; 0.050 kg/ha)	Herbicidal effect rating, CYPDI (CYPERUS DIFFORMIS; 0.100 kg/ha)	Herbicidal effect rating, CYPDI (CYPERUS DIFFORMIS; 0.250 kg/ha)	other results
COC(=O)Cn1c(=O)n(C)c(=O)n(-c2cc(Oc3c(F)cc(C(F)(F)F)cc3Cl)ccc2Br)c1=O [Compound 2, Methyl 3-{2-bromo-5-[(2-chloro-α,α,α,6-tetrafluoro-p-tolyl)oxy]phenyl}tetrahydro-5-methyl-2,4,6-trioxo-s-triazine-1(2H)-acetate]	9.0	9.0	9.0	9.0	3.0	7.0	9.0	9.0	4.0	7.0	9.0	9.0	9.0	9.0	9.0	9.0	9.0	9.0	9.0	9.0	Herbicidal effect rating, SCPJU (SCIRPUS JUNCOIDES; 0.025 kg/ha): 8.0; Herbicidal effect rating, SCPJU (SCIRPUS JUNCOIDES; 0.050 kg/ha): 9.0; Herbicidal effect rating, SCPJU (SCIRPUS JUNCOIDES; 0.100 kg/ha): 9.0; Herbicidal effect rating, SCPJU (SCIRPUS JUNCOIDES; 0.250 kg/ha): 9.0; Herbicidal effect rating, ORYSAK ([1]; 0.025 kg/ha): 1.0; Herbicidal effect rating, ORYSAK ([1]; 0.050 kg/ha): 3.0; Herbicidal effect rating, ORYSAK ([1]; 0.100 kg/ha): 5.0; Herbicidal effect rating, ORYSAK ([1]; 0.250 kg/ha): 9.0
COC(=O)Cn1c(=O)n(C)c(=O)n(-c2cc(Oc3ccc(C(F)(F)F)cc3Cl)ccc2[N+](=O)[O-])c1=O [Compound 3, Methyl 3-{5-[(2-chloro-α,α,α-trifluoro-p-tolyl)oxy]-2-nitrophenyl}tetrahydro-5-methyl-2,4,6-trioxo-s-triazine-1(2H)-acetate]	8.0	9.0	9.0	9.0	0.0	0.0	1.0	3.0	0.0	5.0	8.0	9.0	3.0	5.0	7.0	9.0	5.0	8.0	9.0	9.0	Herbicidal effect rating, SCPJU (SCIRPUS JUNCOIDES; 0.025 kg/ha): 5.0; Herbicidal effect rating, SCPJU (SCIRPUS JUNCOIDES; 0.050 kg/ha): 7.0; Herbicidal effect rating, SCPJU (SCIRPUS JUNCOIDES; 0.100 kg/ha): 9.0; Herbicidal effect rating, SCPJU (SCIRPUS JUNCOIDES; 0.250 kg/ha): 9.0; Herbicidal effect rating, ORYSAK ([1]; 0.025 kg/ha): 0.0; Herbicidal effect rating, ORYSAK ([1]; 0.050 kg/ha): 1.0; Herbicidal effect rating, ORYSAK ([1]; 0.100 kg/ha): 5.0; Herbicidal effect rating, ORYSAK ([1]; 0.250 kg/ha): 8.0
